Literature values as cited in publication PMC4224523 (Molecular Pharmaceutics, 2014).

Details: general statement in introduction

For `FC1(F)OC(F)(F)C(F)(F)OC(F)(F)C(F)(F)OC(F)(F)C(F)(F)OC(F)(F)C(F)(F)OC1(F)F` [PFCE, Perfluoro-15-crown-5-ether], the solubility in solvents is given as “insoluble in most solvents”.
